Results on 8 compounds are retold here after patent publication US12059422B2 (MEI Pharma, Inc., priority 2011, dated 2024).

What all share (assay type): biochemical
The target in assay [1] is T1, PI3K beta (Homo sapiens, UniProt P42338).
T1 construct: purchased Millipore, Billerica, MA, USA
Description: Luciferase-based luminescence assay (ADP Glo), PI3K beta enzymatic activity. As to conditions: for IC50: inhibition of enzymatic activity, ADP Glo, 25 μM ATP, read-out: IC50 p110β; for α/β ratio: ratio of enzymatic IC50 values, Table 1. The procedure: (§1) PI3K catalyzes the conversion of phosphatidylinositol-4,5-bisphosphate (PIP2) and ATP to phosphatidylinositol-3,4,5-trisphosphate (PIP3) and ADP. For all assays, the reaction buffer comprised 50 mM HEPES, pH 7.5, 3 mM MgCl2, 1 mM EGTA, 100 mM NaCl, 0.03% CHAPS and 2 mM DTT. Compounds for testing were dissolved and serially diluted in 100% DMSO (total of 10 concentrations), then diluted 1:25 in reaction buffer.
(§2) PI3K beta and gamma enzymatic activity was determined by measuring the amount of ADP produced following the kinase reaction using a luciferase-based luminescence assay (ADP Glo®, Promega Corp., Madison, WI, USA). PI3K enzyme solutions were prepared by diluting PI3K beta (Millipore, Billerica, MA, USA) or PI3K gamma (Invitrogen Corp., Carlsbad, CA, USA) in reaction buffer, to 4× the final assay concentration (final concentrations of enzymes were 4.8 nM and 7.6 nM for PI3K beta and PI3K gamma respectively). A substrate solution was prepared by mixing PIP2 and ATP in reaction buffer at 2× the final assay concentration (final concentrations were 50 μM and 25 μM for PIP2 and ATP respectively). 2.5 μL each of the compound and kinase mixtures were added to individual wells of white low volume 384-well assay plates and mixed by shaking. The reactions were started by adding 5 μL of substrate mixture per well and shaking. The assay plates were covered and reactions were allowed to proceed for 1 hour. Then, 5 μL of reaction mix was transferred to another white low volume 384-well plate, and 5 μL of ADP-Glo™ reagent was added. The plates were briefly centrifuged and incubated for 40 minutes, after which 10 μL of kinase detection buffer was added. The plates then were centrifuged briefly, shaken slowly and equilibrated at room temperature for 30 minutes, after which luminescence was measured using a FlexStation plate reader (Molecular Devices, Sunnyvale, CA, USA). IC50 values were determined by curve fitting using Graphpad Prism software (Graphpad Software, La Jolla, CA, USA).
For orientation: ADP-Glo first removes unused ATP, then detects ADP through luciferase.

In assay [2] the target is mTOR (Homo sapiens, UniProt P42345). Description: mTOR inhibition (Table 1). As to conditions: Table 1, no method described.
In assay [3] the target is T2, PI3K gamma (Homo sapiens, UniProt P48736).
T2 construct: purchased Invitrogen Corp., Carlsbad, CA, USA
T2 sequence (P48736 whole entry, species assumed): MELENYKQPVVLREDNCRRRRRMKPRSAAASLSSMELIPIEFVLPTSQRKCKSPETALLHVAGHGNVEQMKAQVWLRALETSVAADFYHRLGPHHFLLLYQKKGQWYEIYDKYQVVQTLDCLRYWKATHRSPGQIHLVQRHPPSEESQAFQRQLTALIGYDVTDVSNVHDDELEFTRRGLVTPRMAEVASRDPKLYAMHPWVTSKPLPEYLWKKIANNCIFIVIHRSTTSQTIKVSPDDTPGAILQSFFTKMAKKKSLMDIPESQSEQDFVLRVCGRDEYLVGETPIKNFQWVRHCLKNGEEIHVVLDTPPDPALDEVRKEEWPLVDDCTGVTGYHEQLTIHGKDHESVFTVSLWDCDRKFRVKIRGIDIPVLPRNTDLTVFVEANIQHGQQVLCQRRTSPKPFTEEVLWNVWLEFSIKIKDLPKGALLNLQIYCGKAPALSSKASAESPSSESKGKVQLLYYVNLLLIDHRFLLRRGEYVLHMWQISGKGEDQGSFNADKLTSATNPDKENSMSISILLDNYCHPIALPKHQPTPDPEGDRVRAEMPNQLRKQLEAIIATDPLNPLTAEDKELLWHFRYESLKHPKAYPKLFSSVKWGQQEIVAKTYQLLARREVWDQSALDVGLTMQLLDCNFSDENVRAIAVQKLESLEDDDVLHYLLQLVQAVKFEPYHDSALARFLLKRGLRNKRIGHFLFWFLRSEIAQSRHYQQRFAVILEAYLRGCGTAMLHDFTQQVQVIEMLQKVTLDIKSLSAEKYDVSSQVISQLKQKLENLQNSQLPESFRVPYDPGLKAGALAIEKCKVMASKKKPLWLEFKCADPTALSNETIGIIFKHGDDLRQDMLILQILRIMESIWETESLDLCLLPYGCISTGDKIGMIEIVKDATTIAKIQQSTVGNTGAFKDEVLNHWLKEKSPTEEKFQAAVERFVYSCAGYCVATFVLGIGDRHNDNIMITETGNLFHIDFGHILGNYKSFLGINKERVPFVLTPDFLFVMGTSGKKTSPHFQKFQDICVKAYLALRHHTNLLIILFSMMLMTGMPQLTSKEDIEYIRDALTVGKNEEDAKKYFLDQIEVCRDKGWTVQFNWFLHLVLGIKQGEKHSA
Briefly: Luciferase-based luminescence assay (ADP Glo), PI3K gamma enzymatic activity. As to conditions: inhibition of enzymatic activity, 25 μM ATP, read-out: IC50 p110γ. The protocol:
as §1, §2

The target of assay [4] is T3, PI3K alpha (Homo sapiens, UniProt P42336).
T3 construct: purchased Invitrogen Corp., Carlsbad, CA, USA
T3 sequence (P42336 whole entry, species assumed): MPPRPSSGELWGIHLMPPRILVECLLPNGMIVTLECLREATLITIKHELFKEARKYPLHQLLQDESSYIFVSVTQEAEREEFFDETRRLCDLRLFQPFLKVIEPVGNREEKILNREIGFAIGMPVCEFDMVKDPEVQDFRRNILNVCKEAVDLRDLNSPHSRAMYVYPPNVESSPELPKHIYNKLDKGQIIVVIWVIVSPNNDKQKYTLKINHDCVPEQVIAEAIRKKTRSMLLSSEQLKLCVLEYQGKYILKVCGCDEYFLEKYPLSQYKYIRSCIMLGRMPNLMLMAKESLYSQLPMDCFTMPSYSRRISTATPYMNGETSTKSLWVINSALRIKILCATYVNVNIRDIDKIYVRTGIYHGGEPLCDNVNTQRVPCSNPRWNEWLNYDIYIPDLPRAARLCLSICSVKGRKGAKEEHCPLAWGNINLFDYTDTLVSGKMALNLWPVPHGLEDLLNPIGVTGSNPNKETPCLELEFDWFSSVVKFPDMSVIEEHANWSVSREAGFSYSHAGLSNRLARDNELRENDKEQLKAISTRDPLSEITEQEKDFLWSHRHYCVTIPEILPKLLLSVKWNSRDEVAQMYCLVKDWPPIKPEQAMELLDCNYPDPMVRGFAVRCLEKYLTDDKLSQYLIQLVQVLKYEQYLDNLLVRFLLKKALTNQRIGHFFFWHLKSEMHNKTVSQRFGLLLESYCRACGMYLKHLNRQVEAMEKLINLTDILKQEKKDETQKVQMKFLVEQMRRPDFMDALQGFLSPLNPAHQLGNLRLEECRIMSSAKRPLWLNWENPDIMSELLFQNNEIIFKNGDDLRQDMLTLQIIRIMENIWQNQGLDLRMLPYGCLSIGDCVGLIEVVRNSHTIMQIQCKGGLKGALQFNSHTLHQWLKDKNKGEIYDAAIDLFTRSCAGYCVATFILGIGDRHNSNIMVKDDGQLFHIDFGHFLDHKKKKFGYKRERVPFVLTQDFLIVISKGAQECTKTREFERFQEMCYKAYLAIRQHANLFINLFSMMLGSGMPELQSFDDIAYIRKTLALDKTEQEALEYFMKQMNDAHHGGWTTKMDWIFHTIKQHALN
T3 sequence (P27986 whole entry partner, species assumed): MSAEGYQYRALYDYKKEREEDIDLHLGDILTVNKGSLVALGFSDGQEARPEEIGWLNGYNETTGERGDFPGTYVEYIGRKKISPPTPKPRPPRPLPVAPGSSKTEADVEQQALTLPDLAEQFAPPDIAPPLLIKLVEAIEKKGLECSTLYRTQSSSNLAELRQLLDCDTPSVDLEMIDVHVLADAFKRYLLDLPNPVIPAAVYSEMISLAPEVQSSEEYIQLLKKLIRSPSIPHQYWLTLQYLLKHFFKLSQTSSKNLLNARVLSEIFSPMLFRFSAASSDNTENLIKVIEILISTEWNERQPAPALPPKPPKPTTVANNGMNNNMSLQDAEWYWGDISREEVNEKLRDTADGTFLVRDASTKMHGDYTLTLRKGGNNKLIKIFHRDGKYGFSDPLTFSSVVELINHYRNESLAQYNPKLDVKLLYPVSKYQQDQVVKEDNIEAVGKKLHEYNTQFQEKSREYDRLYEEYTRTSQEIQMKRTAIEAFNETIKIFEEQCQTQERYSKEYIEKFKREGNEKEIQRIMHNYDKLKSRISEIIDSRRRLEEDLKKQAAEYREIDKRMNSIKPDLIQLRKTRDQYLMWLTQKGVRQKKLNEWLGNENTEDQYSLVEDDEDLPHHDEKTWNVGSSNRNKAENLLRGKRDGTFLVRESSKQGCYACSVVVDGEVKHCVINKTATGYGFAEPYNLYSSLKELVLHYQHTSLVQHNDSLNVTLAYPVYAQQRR
Description: Luciferase-based luminescence assay (KinaseGlo), PI3K alpha enzymatic activity. As to conditions: inhibition of enzymatic activity, 25 μM ATP, read-out: IC50 p110α. The protocol:
as §1
(§3) PI3K alpha and PI3K delta enzymatic activity was determined by measuring the amount of ATP consumed following the kinase reaction using a luciferase-based luminescence assay (KinaseGlo®, Promega Corp., Madison, WI, USA). PI3K enzyme solutions were prepared by diluting PI3K alpha (Invitrogen Corp., Carlsbad, CA, USA) or PI3K delta (Millipore, Billerica, MA, USA) in reaction buffer, to 4× the final assay concentration (final concentrations of enzymes were 1.65 nM and 6.86 nM for PI3K alpha and PI3K delta, respectively). A substrate solution was prepared by mixing PIP2 and ATP in reaction buffer at 2× the final assay concentration (final concentrations were 50 μM and 25 μM for PIP2 and ATP respectively). 2.5 μL each of the compound and kinase mixtures were added to individual wells of white low volume 384-well assay plates and mixed by shaking. The reactions were started by adding 5 μL of substrate mixture per well and shaking. The assay plates were covered and reactions were allowed to proceed for 1 hour (PI3K alpha) or 2 hours (PI3K delta), after which 10 μL of Kinase Glo® reagent was added. The plates were briefly centrifuged and incubated for 10 minutes, after which luminescence was measured using a FlexStation plate reader (Molecular Devices, Sunnyvale, CA, USA). IC50 values were determined by curve fitting using Graphpad Prism software (Graphpad Software, La Jolla, CA, USA).
For orientation: In Kinase-Glo more light means more ATP remaining.

For assay [5], the target named is T4, PI3K delta (Homo sapiens, UniProt O00329).
T4 construct: purchased Millipore, Billerica, MA, USA
T4 sequence (O00329 whole entry, species assumed): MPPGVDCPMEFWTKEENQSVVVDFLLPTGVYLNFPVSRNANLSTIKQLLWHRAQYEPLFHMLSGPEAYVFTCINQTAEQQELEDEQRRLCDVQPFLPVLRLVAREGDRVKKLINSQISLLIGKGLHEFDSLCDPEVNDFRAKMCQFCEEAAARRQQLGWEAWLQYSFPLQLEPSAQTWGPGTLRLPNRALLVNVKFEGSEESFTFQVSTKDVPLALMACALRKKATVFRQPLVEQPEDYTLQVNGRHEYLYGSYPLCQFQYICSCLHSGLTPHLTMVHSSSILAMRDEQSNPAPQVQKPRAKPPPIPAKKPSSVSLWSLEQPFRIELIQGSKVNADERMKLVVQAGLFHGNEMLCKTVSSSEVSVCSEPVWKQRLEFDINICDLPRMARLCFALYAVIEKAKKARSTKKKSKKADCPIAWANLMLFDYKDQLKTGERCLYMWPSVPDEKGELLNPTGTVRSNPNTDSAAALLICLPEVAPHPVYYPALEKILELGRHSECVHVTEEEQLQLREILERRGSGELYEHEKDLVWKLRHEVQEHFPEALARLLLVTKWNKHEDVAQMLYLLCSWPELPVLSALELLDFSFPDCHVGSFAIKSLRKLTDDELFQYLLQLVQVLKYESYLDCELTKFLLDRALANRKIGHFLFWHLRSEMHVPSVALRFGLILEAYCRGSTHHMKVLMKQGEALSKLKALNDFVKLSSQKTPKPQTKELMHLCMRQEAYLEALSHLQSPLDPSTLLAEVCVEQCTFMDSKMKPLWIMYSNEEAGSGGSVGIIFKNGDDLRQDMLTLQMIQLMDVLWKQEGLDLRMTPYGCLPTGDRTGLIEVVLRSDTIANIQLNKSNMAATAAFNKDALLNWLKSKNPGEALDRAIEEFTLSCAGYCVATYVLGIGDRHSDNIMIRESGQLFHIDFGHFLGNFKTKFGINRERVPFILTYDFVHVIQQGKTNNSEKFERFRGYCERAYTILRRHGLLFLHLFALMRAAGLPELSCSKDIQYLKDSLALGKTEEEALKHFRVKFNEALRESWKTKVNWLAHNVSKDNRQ
T4 sequence (P27986 whole entry partner, species assumed): as the sequence (P27986 whole entry partner, species assumed) above
Briefly: Luciferase-based luminescence assay (KinaseGlo), PI3K delta enzymatic activity. As to conditions: for IC50: inhibition of enzymatic activity, KinaseGlo, 25 μM ATP, read-out: IC50 p110δ; for α/δ ratio: ratio of enzymatic IC50 against PI3Kα over IC50 against PI3Kδ; for β/δ ratio / γ/δ ratio: ratio of enzymatic IC50 values, Table 1. The procedure: as §1, §3

A value given as a limit tells only on which side of the number the result lay.

T1 sequence (P42338 whole entry, species assumed): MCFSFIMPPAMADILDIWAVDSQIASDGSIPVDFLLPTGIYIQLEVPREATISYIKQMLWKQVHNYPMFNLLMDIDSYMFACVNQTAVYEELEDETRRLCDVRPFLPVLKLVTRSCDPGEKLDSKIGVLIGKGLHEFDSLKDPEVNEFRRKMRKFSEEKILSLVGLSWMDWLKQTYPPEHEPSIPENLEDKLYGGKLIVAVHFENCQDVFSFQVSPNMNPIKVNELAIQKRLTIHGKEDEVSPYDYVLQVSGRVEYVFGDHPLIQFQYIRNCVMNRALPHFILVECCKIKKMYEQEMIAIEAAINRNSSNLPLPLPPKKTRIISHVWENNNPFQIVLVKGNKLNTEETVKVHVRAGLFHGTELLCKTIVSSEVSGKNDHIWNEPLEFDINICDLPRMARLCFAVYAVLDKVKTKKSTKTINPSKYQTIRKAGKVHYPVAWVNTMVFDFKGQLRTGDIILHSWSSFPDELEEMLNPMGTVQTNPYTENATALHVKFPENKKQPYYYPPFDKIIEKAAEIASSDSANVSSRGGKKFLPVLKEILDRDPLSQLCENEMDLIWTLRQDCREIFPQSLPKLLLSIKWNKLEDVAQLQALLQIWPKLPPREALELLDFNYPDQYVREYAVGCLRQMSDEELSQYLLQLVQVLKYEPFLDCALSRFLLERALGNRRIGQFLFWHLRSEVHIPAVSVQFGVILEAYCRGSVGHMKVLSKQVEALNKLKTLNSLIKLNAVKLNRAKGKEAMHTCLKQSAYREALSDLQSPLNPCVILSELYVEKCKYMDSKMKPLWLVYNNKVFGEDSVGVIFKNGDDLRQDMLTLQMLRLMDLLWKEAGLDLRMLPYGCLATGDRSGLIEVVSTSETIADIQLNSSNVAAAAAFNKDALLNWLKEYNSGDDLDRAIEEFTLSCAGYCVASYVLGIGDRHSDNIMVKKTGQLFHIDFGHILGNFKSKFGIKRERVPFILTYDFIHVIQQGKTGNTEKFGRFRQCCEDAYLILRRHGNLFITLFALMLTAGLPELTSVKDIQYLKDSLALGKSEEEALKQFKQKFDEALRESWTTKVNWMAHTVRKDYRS
T1 sequence (P27986 whole entry partner, species assumed): as the sequence (P27986 whole entry partner, species assumed) above

`C[C@H](Nc1nc(N2CCOCC2)nc(-n2c(C(F)F)nc3ccccc32)n1)c1ccccc1` [Compound A2, (S)-4-(2-(difluoromethyl)-1H-benzo[d]imidazol-1-yl)-6-morpholino-N-(1-phenylethyl)-1,3,5-triazin-2-amine]: in assay [1], the IC50 was more than 500 nM and the α/β ratio result is recorded as “D’”. This compound also came in with an IC50 in assay [2] of more than 500 nM. The IC50 in assay [3] is more than 500 nM. For the same compound, the IC50 in assay [4] is more than 500 nM. Moreover, in assay [5], the IC50 was 200 to 500 nM, the α/δ ratio entry was “D’”, the β/δ ratio result is “A’” and the γ/δ ratio result is reported as “D’”.
Consider `CC[C@H](Nc1nc(N2CCOCC2)nc(-n2c(C(F)F)nc3ccccc32)n1)c1ccccc1` [Compound A5, (S)-4-(2-(difluoromethyl)-1H-benzo[d]imidazol-1-yl)-6-morpholino-N-(1-phenylpropyl)-1,3,5-triazin-2-amine], for which, in assay [1], the IC50 is more than 500 nM and the α/β ratio result is on record as “D’”. In assay [2], the IC50 is more than 500 nM. For the same compound, in assay [3], the IC50 was 100 to 200 nM. Further, the IC50 in assay [4] is more than 500 nM. Moreover, in assay [5], the IC50 lay within 200 to 500 nM, the α/δ ratio entry is recorded as “C’”, the β/δ ratio entry is given as “C’” and the γ/δ ratio result is recorded as “D’”.
As to `CC(C)(Nc1nc(N2CCOCC2)nc(-n2c(C(F)F)nc3ccccc32)n1)c1ccccc1` [Compound A7, 4-(2-(difluoromethyl)-1H-benzo[d]imidazol-1-yl)-6-morpholino-N-(2-phenylpropan-2-yl)-1,3,5-triazin-2-amine], in assay [1], the IC50 was more than 500 nM and the α/β ratio result is on record as “D’”. In assay [2], this compound showed an IC50 of more than 500 nM. Also, the IC50 in assay [3] is 200 to 500 nM. In addition, in assay [4], the IC50 was more than 500 nM. For the same compound, in assay [5], the IC50 was in the range of 100 to 200 nM, the α/δ ratio entry is on record as “C’”, the β/δ ratio entry is reported as “A’” and the γ/δ ratio result was “D’”.
On to `CC(C)(Cc1cccc(Cl)c1)Nc1nc(N2CCOCC2)nc(-n2c(C(F)F)nc3ccccc32)n1` [Compound A20, N-(1-(3-chlorophenyl)-2-methylpropan-2-yl)-4-(2-(difluoromethyl)-1H-benzo[d]imidazol-1-yl)-6-morpholino-1,3,5-triazin-2-amine], for which, in assay [1], the IC50 lay within 100 to 200 nM and the α/β ratio entry is on record as “A’”. The compound also yielded an IC50 in assay [2] of more than 500 nM. Also, the IC50 in assay [3] was more than 500 nM. In assay [4], the IC50 was more than 500 nM. Moreover, in assay [5], the IC50 fell in the range of 100 to 200 nM, the α/δ ratio entry was “A’”, the β/δ ratio result was “D’” and the γ/δ ratio entry was “C’”.
For `CC(C)(Cc1ccc2ccccc2c1)Nc1nc(N2CCOCC2)nc(-n2c(C(F)F)nc3ccccc32)n1` [Compound A26, 4-(2-(difluoromethyl)-1H-benzo[d]imidazol-1-yl)-N-(2-methyl-1-(naphthalen-2-yl)propan-2-yl)-6-morpholino-1,3,5-triazin-2-amine], in assay [1], the IC50 is not above 100 nM and the α/β ratio entry is recorded as “C’”. The compound also came in with an IC50 in assay [2] of more than 500 nM. The IC50 in assay [3] was 100 to 200 nM. Moreover, the IC50 in assay [4] is 200 to 500 nM. Besides, in assay [5], the half-maximal inhibitory concentration (IC50) lay in the range of 100 to 200 nM, the α/δ ratio entry is reported as “D’”, the β/δ ratio entry was “D’” and the γ/δ ratio entry is recorded as “D’”.
With `CC(C)(CNc1nc(N2CCOCC2)nc(-n2c(C(F)F)nc3ccccc32)n1)c1ccccc1` [Compound A29, 4-(2-(difluoromethyl)-1H-benzo[d]imidazol-1-yl)-N-(2-methyl-2-phenylpropyl)-6-morpholino-1,3,5-triazin-2-amine], in assay [1], the IC50 was more than 500 nM and the α/β ratio entry is “D’”. In addition, the IC50 in assay [2] is more than 500 nM. The IC50 in assay [3] was more than 500 nM. Moreover, the IC50 in assay [4] was more than 500 nM. Also, in assay [5], the IC50 was in the range of 200 to 500 nM, the α/δ ratio entry is reported as “C’”, the β/δ ratio result is on record as “A’” and the γ/δ ratio entry is listed as “D’”.
In the case of `CC(C)(Nc1nc(N2CCOCC2)nc(-n2c(C(F)F)nc3ccccc32)n1)C1(c2ccccc2)CC1` [Compound A30, 4-(2-(difluoromethyl)-1H-benzo[d]imidazol-1-yl)-N-(2-(1-phenylcyclopropyl)propan-2-yl)-6-morpholino-1,3,5-triazin-2-amine], the 50% inhibitory concentration (IC50) was 200 to 500 nM in assay [1]; more than 500 nM in assay [2]; more than 500 nM in assay [3]; more than 500 nM in assay [4]; 100 to 200 nM in assay [5]. For the same compound, the α/β ratio result in assay [1] is listed as “B’”. Also, the α/δ ratio entry in assay [5] is “A’”. Also, in assay [5], the β/δ ratio entry is on record as “D’”. Also, the γ/δ ratio entry in assay [5] is “D’”.
In the case of `CC(C)(Cc1ccccc1-c1ccccc1)Nc1nc(N2CCOCC2)nc(-n2c(C(F)F)nc3ccccc32)n1` [Compound A47, 4-(2-(difluoromethyl)-1H-benzo[d]imidazol-1-yl)-N-(1-(biphenyl-2-yl)-2-methylpropan-2-yl)-6-morpholino-1,3,5-triazin-2-amine], in assay [1], the IC50 is 100 to 200 nM and the α/β ratio entry is recorded as “D’”. Further, in assay [2], the IC50 is more than 500 nM. Moreover, the IC50 in assay [3] is more than 500 nM. Also, in assay [4], the IC50 was 200 to 500 nM. Further, in assay [5], the IC50 was not above 100 nM, the α/δ ratio entry is “A’”, the β/δ ratio entry was “B’” and the γ/δ ratio result is “A’”.

What is called IC50 is the concentration that inhibits the measured activity by half.
